{"source": "patent US20230399358A1", "about": "“IMMUNOGLOBULIN PURIFICATION PEPTIDES AND THEIR USE” (North Carolina State University, priority 2019, published 2023)", "key": {"[1]": {"system": "human polyclonal IgG in CHO-S cell culture fluid", "test": "Static purification of IgG from CHO cell culture supernatant on peptide-Toyopearl resins, SDS-PAGE densitometry", "settings": "for % Purity (IgG over total proteins): lane FT (flow-through); for % Purity (IgG over total eluted proteins): lane R (pH 2.5)", "experimental": "Measurement of IgG binding by peptide-based chromatographic adsorbents: For initial studies, 35 mg of MWRGWQ (SEQ ID NO:2)-Toyopearl, RHLGWF (SEQ ID NO:3)-Toyopearl, WQRHGI (SEQ ID NO:1)-Toyopearl, GWLHQR (SEQ ID NO:4)-Toyopearl, and HWRGWV (SEQ ID NO:18)-Toyopearl (control) resins were equilibrated in PBS pH 7.4, reaching a swollen volume of 0.1 mL, and subsequently incubated with 1 mg/mL IgG in 0.205 mg/mL CHO cell culture supernatant for 30 minutes. The resins were subsequently washed several times with PBS to remove non-specifically bound proteins. Elution was performed with 100 mM glycine buffer pH 2.5. Flowthrough and elution fractions were collected and analyzed by SDS PAGE under reducing conditions. The resulting gels were stained with Coomassie staining. Further, 25 mg of the adsorbents MWRGWQ (SEQ ID NO:2)-Toyopearl, NIFRGWQ (SEQ ID NO:21)-Toyopearl, MWRAWQ (SEQ ID NO:5)-Toyopearl, MWRGFQ (SEQ ID NO:7)-Toyopearl, MWRGWN (SEQ ID NO:22)-Toyopearl, (NorL) WRGWQ (SEQ ID NO:23)-Toyopearl, MGRGWQ (SEQ ID NO:24)-Toyopearl, MWRWQ (SEQ ID NO:6)-Toyopearl, MWRGGQ (SEQ ID NO:26)-Toyopearl, GWRGWQ (SEQ ID NO:8)-Toyopearl, WQRHGI (SEQ ID NO:1)-Toyopearl, WNRHGI (SEQ ID NO:12)-Toyopearl, WQRAGI (SEQ ID NO:28)-Toyopearl, WQRHAI (SEQ ID NO:11)-Toyopearl, WQRHGL (SEQ ID NO:9)-Toyopearl, FQRHGI (SEQ ID NO:29)-Toyopearl, and WQRHGV (SEQ ID NO:10)-Toyopearl resins were equilibrated in PBS pH 7.4, reaching a swollen volume of 0.1 mL, and subsequently incubated with 1 mg/mL IgG in PBS at pH 7.4 for 30 minutes. The amount of unbound IgG in the supernatant samples was quantified by Bradford assay and utilized to determine the IgG binding % by the peptide variants.\nCharacterization of IgG-binding peptide variants WQRHGI (SEQ ID NO:1), MWRGWQ (SEQ ID NO:2), RHLGWF (SEQ ID NO:3), and GWLHQR (SEQ ID NO:4) in competitive conditions: The four selected sequence variants were tested for their ability to purify human IgG from a CHO cell culture supernatant and found largely to mirror their in silico predictions. Even though they seemed to underperform in silico, RHLGWF (SEQ ID NO:3) and GWLHQR (SEQ ID NO:4) were tested alongside WQRHGI (SEQ ID NO:1) and MWRGWQ (SEQ ID NO:2) in these conditions in order to confirm their ability to bind IgG and examine their selectivity as predicted in silico. The feedstock was prepared by spiking human polyclonal IgG into a clarified null CHO-S cell culture fluid to obtain an IgG concentration of 1 mg/mL and a CHO HCP concentration of 0.205 mg/mL. An aliquot of 500 μL was loaded onto each peptide adsorbent in static conditions for 30 min. Following a washing step with PBS to remove loosely bound proteins, a first elution step was conducted using 0.1 M glycine buffer pH 2.5 to remove all bound proteins. Flow through fractions and pH 2.5 elution fractions were loaded neat and analyzed by SDS PAGE (FIGS. 6A-6B). The values of IgG purity in the eluted fractions were determined by densitometric analysis of the corresponding lanes on the gels, and are reported in Table 9."}, "IgG": {"system": "IgG", "settings": "optimized adsorbents, Menegatti et al. 2016; cited from earlier work"}, "host cell protein (HCP)": {"system": "host cell protein (HCP)", "settings": "literature value; cited from earlier work"}, "human IgG": {"system": "human IgG", "settings": "reference [77], cited from earlier work"}}, "note": "Read-outs that look alike come from different tables or passages of the source."}
{"substance": "HWRGWV [reference compound]", "values": [{"measurement": "% Purity (IgG over total proteins)", "setting": "[1]; Gel A", "value": 100.00, "unit": "%"}, {"measurement": "% Purity (IgG over total eluted proteins)", "setting": "[1]; Gel A", "value": 97.81, "unit": "%"}, {"measurement": "% Purity (IgG over total proteins)", "setting": "[1]; Gel B", "value": 45.40, "unit": "%"}, {"measurement": "% Purity (IgG over total eluted proteins)", "setting": "[1]; Gel B", "value": 93.79, "unit": "%"}, {"measurement": "binding capacity", "setting": "IgG", "value": "up to 91.5 mg of IgG per mL of adsorbent"}, {"measurement": "HCP LRV", "setting": "host cell protein (HCP)", "value": 1.6}, {"measurement": "DBC at 10% breakthrough", "setting": "human IgG; residence time 2 min", "value": 25, "unit": "mg IgG/mL resin"}, {"measurement": "DBC at 10% breakthrough", "setting": "human IgG; residence time 5 min", "value": 36, "unit": "mg IgG/mL resin"}]}
